The numbers were not newly measured in patent US11111250B2 (SHILPA MEDICARE LIMITED, priority 2017, dated 2021), which cites them from elsewhere.

The conditions of series [1]: aqueous media, pH dependence.
The conditions of series [2]: long term and accelerated stability studies, stored in the proposed packaging.

Regarding Ribociclib mono succinate, in series [1], the solubility result is “soluble in acidic aqueous media, becoming less soluble as pH increases”. Consider “Ribociclib mono succinate [Ribociclib mono succinate form A]”, for which the polymorphic stability entry in series [2] is “stable and not to convert into other polymorphic forms”.
